The source of these data is PMC7968037 (RSC Advances, 2021).

Like-named read-outs stand apart in the source and are kept apart here.

By IC50 is commonly meant the concentration that inhibits the measured activity by half. The EC50 is the midpoint of the concentration-response curve. High values mean lower potency in that assay, low ones higher potency in that assay.

In series [1] the test system is MCF-7 (ER+/PR+/HER2−) breast cancer cells. Briefly: cells. Format: cell-based. The note with it: for IC50: Homo sapiens, read-out: Growth inhibition [log(IC50 [μM]) ± SEM] (converted); for Early inhibition of growth compared to vehicle-treated cells: MCF-7, 24 h, tested 0.32–320 μM, Fig. 4A.
The subject of series [2] is SK-BR-3 (ER−/PR−/HER2+) breast cancer cells. Description: cells. Format: cell-based. The note with it: Homo sapiens, read-out: Growth inhibition [log(IC50 [μM]) ± SEM] (converted).
Series [3] relates to MDA-MB-231 (triple negative) breast cancer cells. Briefly: cells. The note with it: Homo sapiens, read-out: Growth inhibition [log(IC50 [μM]) ± SEM] (converted). Format: cell-based.
Series [4] deals with benign MCF-10A breast cells. Description: cells. The class given is cell-based. Particulars: for Change of cell growth compared to vehicle-treated cells: tested 0.32–320 μM; for IC50: Homo sapiens, read-out: Growth inhibition [log(IC50 [μM]) ± SEM] (converted).
A short description of series [5]: in vitro. Particulars: human, Cytotoxicity [log(EC50 [μM]) ± SEM], cellular necrosis, MCF-7, 72 h exposure, 0.32–320 μM; values are logarithms.
Series [6] in a line: in vitro. Particulars: human, Cytotoxicity [log(EC50 [μM]) ± SEM], cellular necrosis, SK-BR-3, 72 h exposure, 0.32–320 μM; values are logarithms.
Series [7] is described as follows: in vitro. Particulars: human, Cytotoxicity [log(EC50 [μM]) ± SEM], cellular necrosis, MDA-MB-231, 72 h exposure, 0.32–320 μM; values are logarithms.
The nature of series [8]: in vitro. Particulars: human, Cytotoxicity [log(EC50 [μM]) ± SEM], cellular necrosis, MCF-10A, 72 h exposure, 0.32–320 μM; values are logarithms.
For series [9], the system named is benign MCF-10A breast cells. The note with it: tested 0.32–320 μM; for Concentrations that exerted significant toxicity compared to vehicle: 72 h, p ≤ 0.05, Fig. 5D′; for Concentrations that exerted significant cytotoxicity compared to vehicle: 24 h, p ≤ 0.05, Fig. 5D.

Turning to `C=C(C[C@H](N)C(=O)O)C(=O)Nc1ccccc1` [Compound 3, (S)-2-Amino-4-(phenylcarbamoyl)pent-4-enoic acid], the IC50 in [1] (MCF7, 24 h) is over 320 µM; in [1] (MCF7, 72 h) it was 251 µM; in series [2] (SK-BR-3, 24 h), 37.2 µM; in [2] (SK-BR-3, 72 h), 1.66 µM; in [3] (MDA-MB-231, 24 h) it was over 320 µM; in series [3] (MDA-MB-231, 72 h), over 320 µM. Moreover, the 50% inhibitory concentration (IC50) in [4] (24 h) and in [4] (72 h) was over 316 µM each time. Besides, the “Change of cell growth compared to vehicle-treated cells” value (from here on “Change of cell growth”) in series [4] (72 h, Fig. 4D′) was “significant increases”. Also, the EC50 in “in vitro [5]” was 2.04 µM; in “in vitro [6]”, over 316 µM; in the series “in vitro [7]”, over 316 µM; in “in vitro [8]”, over 316 µM.

Turning to `C=C(C[C@H](N)C(=O)O)C(=O)N1CCCCC1` [Compound 8, (S)-2-Amino-4-(piperidine-1-carbonyl)pent-4-enoic acid], the IC50 in [1] (MCF7, 24 h) is over 320 µM; in series [1] (MCF7, 72 h), over 320 µM; in series [2] (SK-BR-3, 24 h), 135 µM; in series [2] (SK-BR-3, 72 h), 0.617 µM; in [3] (MDA-MB-231, 24 h) it was over 320 µM; in series [3] (MDA-MB-231, 72 h), over 320 µM. Also, the IC50 in series [4] (24 h) and in series [4] (72 h) was over 316 µM each time. The “Change of cell growth” value in series [4] (72 h, Fig. 4D′) is reported as “significant increases”. For the same molecule, the concentration giving a half-maximal response (EC50) in the series “in vitro [5]” is 200 µM; in “in vitro [6]”, over 316 µM; in “in vitro [7]”, over 316 µM; in the series “in vitro [8]” it was over 316 µM.

Turning to `C=C(C[C@H](N)C(=O)O)C(=O)NCc1ccc([N+](=O)[O-])cc1` [Compound 6, (S)-2-Amino-4-((4-nitrobenzyl)carbamoyl)pent-4-enoic acid], the 50% inhibitory concentration (IC50) in series [1] (MCF7, 24 h) was over 320 µM; in series [1] (MCF7, 72 h), over 320 µM; in series [2] (SK-BR-3, 24 h), 12.9 µM; in series [2] (SK-BR-3, 72 h), 3.16 µM; in [3] (MDA-MB-231, 24 h), 219 µM; in series [3] (MDA-MB-231, 72 h) it was over 320 µM. Further, the 50% inhibitory concentration (IC50) in series [4] (24 h) and in [4] (72 h) was over 316 µM throughout. For the same molecule, the “Change of cell growth” value in series [4] (24 h, Fig. 4D) is recorded as “significant increases”. Further, the EC50 in “in vitro [5]” is 20.4 µM; in the series “in vitro [6]” it was 0.437 µM; in “in vitro [7]”, 269 µM; in “in vitro [8]”, over 316 µM.

On to `C=C(C[C@H](N)C(=O)O)C(=O)Nc1ccc(F)cc1` [Compound 9, (S)-2-Amino-4-((4-fluorophenyl)carbamoyl) pent-4-enoic acid], for which the half-inhibitory concentration (IC50) in [1] (MCF7, 24 h) is over 320 µM; in series [1] (MCF7, 72 h) it was 75.9 µM; in series [2] (SK-BR-3, 24 h) it was 11.5 µM; in [2] (SK-BR-3, 72 h), 4.79 µM; in [3] (MDA-MB-231, 24 h), over 320 µM; in [3] (MDA-MB-231, 72 h), over 320 µM. For the same molecule, the half-inhibitory concentration (IC50) in series [4] (24 h) and in [4] (72 h) was over 316 µM throughout. For the same molecule, the 50% effective concentration (EC50) in “in vitro [5]” is 2.29 µM; in “in vitro [6]”, 0.0603 µM; in “in vitro [7]”, over 316 µM; in the series “in vitro [8]” it was over 316 µM.

For `C=C(C[C@H](N)C(=O)O)C(N)=O` [Compound 1, (S)-2-Amino-4-carbamoylpent-4-enoic acid], the IC50 is over 320 µM in series [1] (MCF7, 24 h); over 320 µM in series [1] (MCF7, 72 h); 7.94 µM in [2] (SK-BR-3, 24 h); 11.2 µM in series [2] (SK-BR-3, 72 h); 141 µM in series [3] (MDA-MB-231, 24 h); over 320 µM in [3] (MDA-MB-231, 72 h). Further, the IC50 in series [4] (24 h) and in series [4] (72 h) was over 316 µM each time. Also, the “Change of cell growth” value is on record as “significant increases” in series [4] (24 h, Fig. 4D) and “significant increases” in series [4] (72 h, Fig. 4D′). In addition, the “Concentrations that exerted significant toxicity compared to vehicle” value in series [9] was determined as 3.2 µM. In addition, the EC50 in the series “in vitro [5]” was 2.95 µM; in the series “in vitro [6]”, 2.04 µM; in “in vitro [7]”, over 316 µM; in “in vitro [8]”, over 316 µM.

On to `O=C(c1cc(Cc2n[nH]c(=O)c3ccccc23)ccc1F)N1CCN(C(=O)C2CC2)CC1` [Olaparib, reference compound], for which the IC50 is over 316 µM in series [1] (MCF7, 24 h); 107 µM in series [1] (MCF7, 72 h); 1.62 µM in [2] (SK-BR-3, 24 h); 1.05 µM in series [2] (SK-BR-3, 72 h); 162 µM in series [3] (MDA-MB-231, 24 h); 155 µM in series [3] (MDA-MB-231, 72 h). Also, the IC50 in series [4] (24 h) and in series [4] (72 h) was over 316 µM throughout. Besides, the “Concentrations that exerted significant cytotoxicity compared to vehicle” value in [9] is 320 µM. Besides, in [9], the “Concentrations that exerted significant toxicity compared to vehicle” value was found to be 320 µM. The EC50 in the series “in vitro [5]” is 26.3 µM; in “in vitro [6]” it was 0.0603 µM; in the series “in vitro [7]” it was 97.7 µM; in the series “in vitro [8]”, over 316 µM.

As to `CC/C(=C(\c1ccccc1)c1ccc(OCCN(C)C)cc1)c1ccccc1` [Tamoxifen, reference compound], the EC50 was 0.331 µM in the series “in vitro [6]”, 30.9 µM in the series “in vitro [7]” and over 316 µM in the series “in vitro [8]”.

On to `C=C(C[C@H](N)C(=O)O)C(=O)NCc1ccc(F)cc1` [Compound 5, (S)-2-Amino-4-((4-fluorobenzyl)carbamoyl)pent-4-enoic acid], for which the IC50 was over 320 µM in [1] (MCF7, 24 h); 85.1 µM in series [1] (MCF7, 72 h); 3.89 µM in series [2] (SK-BR-3, 24 h); 4.47 µM in series [2] (SK-BR-3, 72 h); over 320 µM in series [3] (MDA-MB-231, 24 h); over 320 µM in series [3] (MDA-MB-231, 72 h). The 50% inhibitory concentration (IC50) in [4] (24 h) and in series [4] (72 h) was over 316 µM each time. In addition, the “Change of cell growth” value in [4] (24 h, Fig. 4D) was “significant increases”; in series [4] (72 h, Fig. 4D′), “significant increases”. Also, the “Concentrations that exerted significant cytotoxicity compared to vehicle” value in series [9] amounted to 320 µM. Further, in series [9], the “Concentrations that exerted significant toxicity compared to vehicle” value was 320 µM. Also, the EC50 in the series “in vitro [5]” is 55 µM; in “in vitro [6]” it was 0.389 µM; in the series “in vitro [7]”, 263 µM; in “in vitro [8]”, over 316 µM.

Consider `C=C(C[C@H](N)C(=O)O)C(=O)NC1CC1` [Compound 7, (S)-2-Amino-4-(cyclopropylcarbamoyl)pent-4-enoic acid], for which the IC50 in [1] (MCF7, 24 h) is 229 µM; in series [1] (MCF7, 72 h), over 320 µM; in [2] (SK-BR-3, 24 h) it was 316 µM; in series [2] (SK-BR-3, 72 h), 0.575 µM; in series [3] (MDA-MB-231, 24 h) it was over 320 µM; in series [3] (MDA-MB-231, 72 h), over 320 µM. In addition, the IC50 in series [4] (24 h) and in series [4] (72 h) was over 316 µM in each case. In addition, the “Early inhibition of growth compared to vehicle-treated cells” value in [1] is “exerted early inhibition”. Further, in [4] (72 h, Fig. 4D′), the “Change of cell growth” value is recorded as “significant increases”. The EC50 in “in vitro [5]”, in the series “in vitro [6]”, in the series “in vitro [7]” and in the series “in vitro [8]” was over 316 µM throughout.

In the case of `C=C(C[C@H](N)C(=O)O)C(=O)Nc1ccc(Cl)cc1` [Compound 10, (S)-2-Amino-4-((4-chlorophenyl)carbamoyl)pent-4-enoic acid], the IC50 was over 320 µM in series [1] (MCF7, 24 h); 209 µM in series [1] (MCF7, 72 h); 79.4 µM in series [2] (SK-BR-3, 24 h); 3.98 µM in [2] (SK-BR-3, 72 h); over 320 µM in [3] (MDA-MB-231, 24 h); over 320 µM in [3] (MDA-MB-231, 72 h). Further, the half-maximal inhibitory concentration (IC50) in [4] (24 h) and in series [4] (72 h) was over 316 µM in each case. For the same molecule, the “Early inhibition of growth compared to vehicle-treated cells” value in series [1] was “exerted early inhibition”. Also, in [4] (72 h, Fig. 4D′), the “Change of cell growth” value is listed as “significant increases”. For the same molecule, the “Concentrations that exerted significant toxicity compared to vehicle” value in series [9] came out at 100 µM. For the same molecule, the concentration giving a half-maximal response (EC50) was 93.3 µM in “in vitro [5]”, over 316 µM in the series “in vitro [6]”, over 316 µM in the series “in vitro [7]” and over 316 µM in “in vitro [8]”.

Regarding `C=C(C[C@H](N)C(=O)O)C(=O)NCc1ccccc1` [Compound 4, (S)-2-Amino-4-(benzylcarbamoyl)pent-4-enoic acid], the IC50 in series [1] (MCF7, 24 h) was over 320 µM; in series [1] (MCF7, 72 h), 195 µM; in [2] (SK-BR-3, 24 h) it was 74.1 µM; in [2] (SK-BR-3, 72 h), 0.562 µM; in series [3] (MDA-MB-231, 24 h), over 320 µM; in series [3] (MDA-MB-231, 72 h), over 320 µM. Also, the half-inhibitory concentration (IC50) in [4] (24 h) and in series [4] (72 h) was over 316 µM each time. The half-maximal effective concentration (EC50) in the series “in vitro [5]” is 219 µM; in the series “in vitro [6]”, over 316 µM; in “in vitro [7]” it was over 316 µM; in the series “in vitro [8]”, over 316 µM.
